# According to US10111435B2, “Herbicidal compositions containing N-(1,3,4-oxadiazol-2-yl)-aryl carboxylic acid amides” (BAYER CROPSCIENCE AKTIENGESELLSCHAFT, priority 2013, dated 2018):
# What was measured:
# Assay type in all cases: in vivo
# Poa annua (POAAN) = experiment: greenhouse post-emergence herbicidal efficacy against POAAN
# Method: (§1) All trials whose results are shown were conducted in a greenhouse by the methodology specified below. The effect of the inventive herbicidal compositions was examined on the following harmful plants 14 and 21 days after application:
# (§2) Echinochloa crus-galli (ECHCG), Eleusine indica (ELEIN), Setaria viridis (SETVI), Amaranthus retroflexus (AMARE), Chenopodium album (CHEAL), Kochia scoparia (KCHSC), Solanum nigrum (SOLNI), Avena fatua (AVEFA), Bromus sterilis (BROST), Lolium multiflorum (LOLMU), Phalaris minor (PHAMI), Poa annua (POAAN), Galium aparine (GALAP), Matricaria inodora (MATIN) and Polygonum convolvulus (POLCO).
# (§3) The harmful plant seeds were sown in pots (diameter 8 cm) with sandy loam soil and germinated under optimal conditions. The inventive herbicidal compositions or the active ingredients alone were applied post-emergence to the planted pots with a spray volume of 300 L/ha. The trial was conducted in a greenhouse under optimum growth conditions. The herbicidal effects were assessed visually by comparison of untreated and treated plants. The percentages mean: 0%=no effects, 100%=the plants die off completely).
# (§4) The abbreviations mean: • a.i.=active ingredient • E^C=expected value according to Colby (E^C=A+B−A×B/100) • Diff: =difference (%) of measured value from expected value (%) (measured value minus expected value)
# (§5) Assessment: • measured value E is greater than E^C:->synergism (+ diff.) • measured value E equals E^C:->additive effect • measured value E is smaller than E^C:->antagonism(− diff.)
# Bromus sterilis (BROST) = experiment: greenhouse post-emergence herbicidal efficacy against BROST
# Method: as §1, §2, §3, §4, §5
# [1] = system: Polygonum convolvulus (POLCO); experiment: greenhouse post-emergence herbicidal efficacy against POLCO
# Method: as §1, §2, §3, §4, §5
# Phalaris minor (PHAMI) = experiment: greenhouse post-emergence herbicidal efficacy against PHAMI
# Method: as §1, §2, §3, §4, §5
# [2] = system: Lolium multiflorum (LOLMU); experiment: greenhouse post-emergence herbicidal efficacy against LOLMU
# Method: as §1, §2, §3, §4, §5
# [3] = system: Matricaria inodora (MATIN); experiment: greenhouse post-emergence herbicidal efficacy against MATIN
# Method: as §1, §2, §3, §4, §5
# Galium aparine (GALAP) = experiment: greenhouse post-emergence herbicidal efficacy against GALAP
# Method: as §1, §2, §3, §4, §5
# Avena fatua (AVEFA) = experiment: greenhouse post-emergence herbicidal efficacy against AVEFA
# Method: as §1, §2, §3, §4, §5
# Setaria viridis (SETVI) = experiment: greenhouse post-emergence herbicidal efficacy against SETVI; conditions: 21 days after application
# Method: as §1, §2
# as §3, with “completely). The percentages are used to calculate interactions between individual treatments and combination treatments according to S. R. Colby, Weeds 15, pages 20 to 22 (1967).” for “completely).”
# as §4, §5
# [4] = system: Echinochloa crus-galli (ECHCG); experiment: greenhouse post-emergence herbicidal efficacy against ECHCG
# Method: as §1, §2
# as §3, with “completely). The percentages are used to calculate interactions between individual treatments and combination treatments according to S. R. Colby, Weeds 15, pages 20 to 22 (1967).” for “completely).”
# as §4, §5
# [5] = system: Chenopodium album (CHEAL); experiment: greenhouse post-emergence herbicidal efficacy against CHEAL; conditions: 21 days after application, 2 g of a.i./ha
# Method: as §1, §2
# as §3, with “completely). The percentages are used to calculate interactions between individual treatments and combination treatments according to S. R. Colby, Weeds 15, pages 20 to 22 (1967).” for “completely).”
# as §4, §5
# Kochia scoparia (KCHSC) = experiment: greenhouse post-emergence herbicidal efficacy against KCHSC
# Method: as §1, §2
# as §3, with “completely). The percentages are used to calculate interactions between individual treatments and combination treatments according to S. R. Colby, Weeds 15, pages 20 to 22 (1967).” for “completely).”
# as §4, §5
# Eleusine indica (ELEIN) = experiment: greenhouse post-emergence herbicidal efficacy against ELEIN; conditions: Eleusine indica, post-emergence; for pest or weed control at 0.5 g/ha: 0.5 g of a.i./ha; for pest or weed control at 2 g/ha: 2 g of a.i./ha
# Method: as §1, §2
# as §3, with “completely). The percentages are used to calculate interactions between individual treatments and combination treatments according to S. R. Colby, Weeds 15, pages 20 to 22 (1967).” for “completely).”
# as §4, §5
# [6] = 14 days after application, 0.5 g of a.i./ha
# [7] = 14 days after application, 2 g of a.i./ha
# [8] = 21 days after application, g of a.i./ha: A1-34 50, iodosulfuron-methyl-sodium 2
# [9] = 21 days after application, g of a.i./ha: A1-34 200, iodosulfuron-methyl-sodium 2
# [10] = 21 days after application, g of a.i./ha: A1-34 50, iodosulfuron-methyl-sodium 0.5
# [11] = 14 days after application, 2.5 g of a.i./ha
# [12] = 14 days after application, 10 g of a.i./ha
# [13] = 21 days after application, g of a.i./ha: A1-13 2.5, mesosulfuron-methyl 10
# [14] = 21 days after application, g of a.i./ha: A1-13 2.5, mesosulfuron-methyl 2.5
# [15] = 21 days after application, g of a.i./ha: A1-13 10, mesosulfuron-methyl 10
# [16] = 14 days after application, 5 g of a.i./ha
# [17] = 14 days after application, 20 g of a.i./ha
# [18] = 21 days after application, g of a.i./ha: A1-3 5, pinoxaden 20
# [19] = 21 days after application, g of a.i./ha: A1-3 20, pinoxaden 20
# [20] = 21 days after application, g of a.i./ha: A1-3 20, pinoxaden 5
# [21] = 21 days after application, 0.5 g of a.i./ha
# [22] = 21 days after application, 2 g of a.i./ha
# [23] = 336 h, 14 days after application
# [24] = 504 h, 21 days after application
smiles,measurement,setting,value
COC(=O)c1ccc(I)cc1S(=O)(=O)[N-]C(=O)Nc1nc(C)nc(OC)n1.[Na+] [iodosulfuron-methyl-sodium],Efficacy,Poa annua (POAAN); [6],0%
same,Efficacy,Poa annua (POAAN); [7],20%
same,Efficacy,Bromus sterilis (BROST); [7],15%
same,Efficacy,Bromus sterilis (BROST); [8],0%
same,Efficacy,Bromus sterilis (BROST); [9],0%
same,Efficacy,[1]; [6],15%
same,Efficacy,[1]; [7],30%
same,Efficacy,[1]; [10],0%
same,Efficacy,[1]; [8],0%
same,Efficacy,Phalaris minor (PHAMI); [6],10%
same,Efficacy,[2]; [6],0%
same,Efficacy,[2]; [7],30%
same,Efficacy,[3]; [10],70%
same,Efficacy,Galium aparine (GALAP); [6],30%
same,Efficacy,Galium aparine (GALAP); [10],0%
same,Efficacy,Galium aparine (GALAP); [9],25%
same,Efficacy,Avena fatua (AVEFA); [9],5%
COC(=O)c1ccc(CNS(C)(=O)=O)cc1S(=O)(=O)NC(=O)Nc1nc(OC)cc(OC)n1 [mesosulfuron-methyl],Efficacy,Poa annua (POAAN); [11],15%
same,Efficacy,Poa annua (POAAN); [12],40%
same,Efficacy,Poa annua (POAAN); [13],40%
same,Efficacy,Bromus sterilis (BROST); [14],0%
same,Efficacy,Bromus sterilis (BROST); [13],0%
same,Efficacy,Bromus sterilis (BROST); [15],0%
same,Efficacy,[1]; [13],0%
same,Efficacy,[1]; [15],0%
same,Efficacy,Phalaris minor (PHAMI); [11],0%
same,Efficacy,Phalaris minor (PHAMI); [12],5%
same,Efficacy,Phalaris minor (PHAMI); [14],0%
same,Efficacy,Phalaris minor (PHAMI); [13],5%
same,Efficacy,Phalaris minor (PHAMI); [15],5%
same,Efficacy,[2]; [15],15%
same,Efficacy,[3]; [11],0%
same,Efficacy,[3]; [12],0%
same,Efficacy,Galium aparine (GALAP); [11],30%
same,Efficacy,Galium aparine (GALAP); [12],30%
same,Efficacy,Avena fatua (AVEFA); [12],5%
same,Efficacy,Avena fatua (AVEFA); [13],0%
same,Efficacy,Avena fatua (AVEFA); [15],0%
CCc1cc(C)cc(CC)c1-c1c(OC(=O)C(C)(C)C)n2n(c1=O)CCOCC2 [pinoxaden],Efficacy,Poa annua (POAAN); [16],0%
same,Efficacy,Poa annua (POAAN); [17],0%
same,Efficacy,Poa annua (POAAN); [18],0%
same,Efficacy,Poa annua (POAAN); [19],0%
same,Efficacy,Bromus sterilis (BROST); [16],0%
same,Efficacy,Bromus sterilis (BROST); [17],10%
same,Efficacy,[1]; [16],0%
same,Efficacy,[1]; [17],0%
same,Efficacy,[1]; [20],0%
same,Efficacy,[1]; [19],0%
same,Efficacy,Phalaris minor (PHAMI); [16],10%
same,Efficacy,Phalaris minor (PHAMI); [17],50%
same,Efficacy,Phalaris minor (PHAMI); [20],10%
same,Efficacy,Phalaris minor (PHAMI); [19],20%
same,Efficacy,[2]; [17],85%
same,Efficacy,[2]; [18],80%
same,Efficacy,[2]; [20],30%
same,Efficacy,[3]; [17],0%
same,Efficacy,Galium aparine (GALAP); [17],0%
same,Efficacy,Galium aparine (GALAP); [18],0%
same,Efficacy,Galium aparine (GALAP); [20],0%
same,Efficacy,Galium aparine (GALAP); [19],0%
same,Efficacy,Avena fatua (AVEFA); [16],0%
same,Efficacy,Avena fatua (AVEFA); [17],20%
CS(=O)(=O)c1ccc(C(=O)C2C(=O)CCCC2=O)c(Cl)c1COCC(F)(F)F [tembotrione],Efficacy,Setaria viridis (SETVI); 0.5 g of a.i./ha,0%
same,Efficacy,Setaria viridis (SETVI); 2 g of a.i./ha,10%
same,Efficacy,[4]; [6],10%
same,Efficacy,[4]; [21],10%
same,Efficacy,[4]; [22],60%
same,Efficacy,[5],30%
same,Efficacy,Kochia scoparia (KCHSC); [7],20%
same,Efficacy,Kochia scoparia (KCHSC); [21],0%
same,Efficacy,Kochia scoparia (KCHSC); [22],10%
same,pest or weed control at 0.5 g/ha,Eleusine indica (ELEIN); [23],30%
same,pest or weed control at 2 g/ha,Eleusine indica (ELEIN); [23],40%
same,pest or weed control at 0.5 g/ha,Eleusine indica (ELEIN); [24],0%
same,pest or weed control at 2 g/ha,Eleusine indica (ELEIN); [24],10%
